From patent US20240261398A1 (priority 2018, published 2024)
Where a name gives a salt, the structure may show the parent alone.

Key:
[1] = test system: A/California/07/2009 virus (H1N1; CA07); set-up: species or system BALB/c mice; conditions: mouse, in vivo
[2] = test system: A/California/07/2009 virus (H1N1; CA07); set-up: species or system BALB/c mice; conditions: mouse, in vivo; remark: listed apart in the source
Ebola GP protein = type: in vivo, BALB/c mice

CCN(Cc1cccc(S(=O)(=O)[O-])c1)c1ccc(C(=C2C=CC(=[N+](CC)Cc3cccc(S(=O)(=O)[O-])c3)C=C2)c2ccccc2S(=O)(=O)[O-])cc1.[Na+].[Na+]
Antibody titers in primary screening, Vaccine + compound [1]: 1333.33
Relative ratio of antibody titer to alum (compound/alum), primary screening [1]: 0.69
Antibody titers in secondary screening, Vaccine + compound [2]: 990
Relative ratio of antibody titer to alum (compound/alum), secondary screening [2]: 1.65

CCN(Cc1cccc(S(=O)(=O)[O-])c1)c1ccc(C(=C2C=CC(=[N+](CC)Cc3cccc(S(=O)(=O)[O-])c3)C=C2)c2ccc(O)cc2S(=O)(=O)[O-])cc1.[Na+].[Na+]
Antibody titers in primary screening, Vaccine + compound [1]: 2133.33
Relative ratio of antibody titer to alum (compound/alum), primary screening [1]: 1.00
Antibody titers in secondary screening, Vaccine + compound [2]: 440
Relative ratio of antibody titer to alum (compound/alum), secondary screening [2]: 0.73

CC1(C)[C@@H](O[C@H]2O[C@H](C(=O)O)[C@@H](O)[C@H](O)[C@H]2O[C@@H]2O[C@H](C(=O)O)[C@@H](O)[C@H](O)[C@H]2O)CC[C@]2(C)[C@H]3C(=O)C=C4[C@@H]5C[C@@](C)(C(=O)O)CC[C@]5(C)CC[C@@]4(C)[C@]3(C)CC[C@@H]12
Antibody titers in primary screening, Vaccine + compound [1]: 5973.33
Antibody titers in secondary screening, Vaccine + compound [2]: 2560

O=C([O-])[C@H](O)[C@@H](O)[C@H](O)[C@H](O)CO.O=C([O-])[C@H](O)[C@@H](O)[C@H](O)[C@H](O)CO.[Fe+2]
Antibody titers in primary screening, Vaccine + compound [1]: 853.33
Relative ratio of antibody titer to alum (compound/alum), primary screening [1]: 0.76
Antibody titers in secondary screening, Vaccine + compound [2]: 3040
Relative ratio of antibody titer to alum (compound/alum), secondary screening [2]: 1.90

O=C([O-])[C@H](O)[C@@H](O)[C@H](O)[C@H](O)CO.[Na+]
Mean value of antibody titers, Only compound [2]: <10
Mean value of antibody titers, Vaccine + compound [2]: 1600.00
Relative ratio of antibody titer to alum (Compound/alum) [2]: 1.00

O=S([O-])O.[Na+]
Mean value of antibody titers, Only compound [2]: <10
Mean value of antibody titers, Vaccine + compound [2]: 730.00
Relative ratio of antibody titer to alum (Compound/alum) [2]: 0.55

CC(C)=CCC[C@@H](C)CC=O
Antibody titers in primary screening, Vaccine + compound [1]: 333.33
Antibody titers in secondary screening, Vaccine + compound [2]: 35

CC(C)=CCCC(C)CCO (racemic) [(+/−)-Citronellol]
Antibody titers in primary screening, Vaccine + compound [1]: 960.00
Antibody titers in secondary screening, Vaccine + compound [2]: 260

CC(C)C1=CC2=CC[C@@H]3[C@](C)(CCC[C@@]3(C)C(=O)O)[C@H]2CC1 [Abietic acid]
Antibody titers in primary screening, Vaccine + compound [1]: 533.33
Antibody titers in secondary screening, Vaccine + compound [2]: 1280

Cc1c(C(=O)O)c(O)cc2c1C(=O)c1c(O)c([C@@H]3O[C@H](CO)[C@@H](O)[C@H](O)[C@H]3O)c(O)c(O)c1C2=O [Carminic acid]
Antibody titers in primary screening, Vaccine + compound [1]: 746.67
Antibody titers in secondary screening, Vaccine + compound [2]: 960

CC(/C=C/C=C(\C)C(=O)O[C@@H]1O[C@H](CO[C@@H]2O[C@H](CO)[C@@H](O)[C@H](O)[C@H]2O)[C@@H](O)[C@H](O)[C@H]1O)=C\C=C\C=C(C)\C=C\C=C(/C)C(=O)O[C@@H]1O[C@H](CO[C@@H]2O[C@H](CO)[C@@H](O)[C@H](O)[C@H]2O)[C@@H](O)[C@H](O)[C@H]1O [Crocin]
Antibody titers in primary screening, Vaccine + compound [1]: 1066.67
Antibody titers in secondary screening, Vaccine + compound [2]: 480

CC(C)=CCC/C(C)=C/COC=O [Geranyl Formate]
Antibody titers in primary screening, Vaccine + compound [1]: 2560.00
Antibody titers in secondary screening, Vaccine + compound [2]: 960

COc1ccc([C@@H]2CC(=O)c3c(O)cc(O[C@@H]4O[C@H](CO[C@@H]5O[C@@H](C)[C@H](O)[C@@H](O)[C@H]5O)[C@@H](O)[C@H](O)[C@H]4O)cc3O2)cc1O [Hesperidin]
Antibody titers in primary screening, Vaccine + compound [1]: 3840.00
Relative ratio of antibody titer to alum (compound/alum), primary screening [1]: 1.13
Antibody titers in secondary screening, Vaccine + compound [2]: 2240
Relative ratio of antibody titer to alum (compound/alum), secondary screening [2]: 4.00

CC(CC=O)CCCC(C)(C)O (stereo not shown) [Hydroxycitronellal]
Antibody titers in primary screening, Vaccine + compound [1]: 2773.33
Antibody titers in secondary screening, Vaccine + compound [2]: 1280

O=C1/C(=C2\Nc3ccc(S(=O)(=O)[O-])cc3C2=O)Nc2ccc(S(=O)(=O)[O-])cc21.[Na+].[Na+] [Indigo Carmine]
Antibody titers in primary screening, Vaccine + compound [1]: 1280.00
Relative ratio of antibody titer to alum (compound/alum), primary screening [1]: 1.50
Antibody titers in secondary screening, Vaccine + compound [2]: 485
Relative ratio of antibody titer to alum (compound/alum), secondary screening [2]: 0.81

CC=Cc1ccc(O)c(OC)c1 [Isoeugenol]
Antibody titers in primary screening, Vaccine + compound [1]: 2986.67
Antibody titers in secondary screening, Vaccine + compound [2]: 140

c1ccc2cnccc2c1 [Isoquinoline]
Antibody titers in primary screening, Vaccine + compound [1]: 1493.33
Antibody titers in secondary screening, Vaccine + compound [2]: 1200

COC(=O)c1ccccc1N [Methyl Anthranilate]
Antibody titers in primary screening, Vaccine + compound [1]: 693.33
Antibody titers in secondary screening, Vaccine + compound [2]: 2240

C[C@@H]1O[C@@H](O[C@H]2[C@H](Oc3cc(O)c4c(c3)O[C@H](c3ccc(O)cc3)CC4=O)O[C@H](CO)[C@@H](O)[C@@H]2O)[C@H](O)[C@H](O)[C@H]1O [Naringin]
Antibody titers in primary screening, Vaccine + compound [1]: 2133.33
Antibody titers in secondary screening, Vaccine + compound [2]: 2240

COC(=O)[C@H](Cc1ccccc1)NC(=O)[C@H](CC(=O)O)NCCC(C)(C)C [Neotame]
Antibody titers in primary screening, Vaccine + compound [1]: 2560.00
Relative ratio of antibody titer to alum (compound/alum), primary screening [1]: 2.00
Antibody titers in secondary screening, Vaccine + compound [2]: 720
Relative ratio of antibody titer to alum (compound/alum), secondary screening [2]: 1.00
virus-specific antibody titers compared with the alum adjuvant [2]: equal to or higher than the alum adjuvant did

[Cl-].[K+] [Potassium chloride]
Mean value of antibody titers, Only compound [2]: <10
Mean value of antibody titers, Vaccine + compound [2]: 2920.00
Relative ratio of antibody titer to alum (Compound/alum) [2]: 1.83

C[C@@H]1O[C@@H](OC[C@H]2O[C@@H](Oc3c(-c4ccc(O)c(O)c4)oc4cc(O)cc(O)c4c3=O)[C@H](O)[C@@H](O)[C@@H]2O)[C@H](O)[C@H](O)[C@H]1O [Rutin]
Antibody titers in primary screening, Vaccine + compound [1]: 2560.00
Antibody titers in secondary screening, Vaccine + compound [2]: 1320

CC(=O)[O-].[Na+] [Sodium acetate]
Mean value of antibody titers, Only compound [2]: <10
Mean value of antibody titers, Vaccine + compound [2]: 740.00
Relative ratio of antibody titer to alum (Compound/alum) [2]: 0.66

O=C([O-])c1ccccc1.[Na+] [Sodium benzoate]
Mean value of antibody titers, Only compound [2]: <10
Mean value of antibody titers, Vaccine + compound [2]: 1600.00
Relative ratio of antibody titer to alum (Compound/alum) [2]: 1.21
virus-specific antibody titers compared with the alum adjuvant [2]: equal to or higher than the alum adjuvant did

[Br-].[Na+] [Sodium bromide]
Mean value of antibody titers, Only compound [2]: <10
Mean value of antibody titers, Vaccine + compound [2]: 970.00
Relative ratio of antibody titer to alum (Compound/alum) [2]: 0.87

O=S([O-])[O-].[Na+].[Na+] [Sodium sulfite]
Mean value of antibody titers, Only compound [2]: <10
Mean value of antibody titers, Vaccine + compound [2]: 2080.00
Relative ratio of antibody titer to alum (Compound/alum) [2]: 1.30
virus-specific antibody titers compared with the alum adjuvant [2]: equal to or higher than the alum adjuvant did

O=S([O-])([O-])=S.[Na+].[Na+] [Sodium thiosulfate]
Mean value of antibody titers, Only compound [2]: <10
Mean value of antibody titers, Vaccine + compound [2]: 1320.00
Relative ratio of antibody titer to alum (Compound/alum) [2]: 1.00

Cn1cnc2c1c(=O)[nH]c(=O)n2C [Theobromine]
Antibody titers in primary screening, Vaccine + compound [1]: 1333.33
Antibody titers in secondary screening, Vaccine + compound [2]: 1440

OC[C@@H](O)[C@H](O)[C@@H](O)CO [Xylitol]
Mean value of antibody titers, Only compound [2]: <10
Mean value of antibody titers, Vaccine + compound [2]: 560.00
Relative ratio of antibody titer to alum (Compound/alum) [2]: 0.35

[O]=[Zn] [Zinc oxide]
Mean value of antibody titers, Vaccine + compound (Ebola GP protein; Ebola VLP 1 μg/dose + compound, i.m. twice, serum two weeks after second immunization, mean of 4 mice): 400.00
Antibody titer ratio (a) (Ebola GP protein; [VLP + candidate compound]/[VLP + AddaVax]): 0.67
Mean value of antibody titers, Only compound (c) (Ebola GP protein; compound alone, mice treated as in the influenza adjuvant screening): <10

CC1=C(/C=C/C(C)=C/C=C/C(C)=C/C=C/C=C(C)/C=C/C=C(C)/C=C/C2=C(C)CCCC2(C)C)C(C)(C)CCC1 [β-Carotene]
Antibody titers in primary screening, Vaccine + compound [1]: 960.00
Antibody titers in secondary screening, Vaccine + compound [2]: 1120

OC[C@H]1O[C@@H]2O[C@H]3[C@H](O)[C@@H](O)[C@@H](O[C@H]4[C@H](O)[C@@H](O)[C@@H](O[C@H]5[C@H](O)[C@@H](O)[C@@H](O[C@H]6[C@H](O)[C@@H](O)[C@@H](O[C@H]7[C@H](O)[C@@H](O)[C@@H](O[C@H]8[C@H](O)[C@@H](O)[C@@H](O[C@H]1[C@H](O)[C@H]2O)O[C@@H]8CO)O[C@@H]7CO)O[C@@H]6CO)O[C@@H]5CO)O[C@@H]4CO)O[C@@H]3CO [β-Cyclodextrin]
Antibody titers in primary screening, Vaccine + compound [1]: 373.33
Relative ratio of antibody titer to alum (compound/alum), primary screening [1]: 0.22
Antibody titers in secondary screening, Vaccine + compound [2]: 1440
Relative ratio of antibody titer to alum (compound/alum), secondary screening [2]: 0.90
